Data as given in patent US11701333B2, “Antibacterial compounds” (KENT INNOVATION & ENTERPRISE, priority 2017, dated 2023).
≈ marks a conversion by molar mass, not a printed value.

Experiments:
Type in all cases: cell-based
E. coli [1] = experiment: drop test activity screening; also: key: Y = antibacterial activity; N = No antibacterial activity
Excerpt: (§1) The ability of each of the compounds of the invention to impact bacterial growth and viability has been tested. This has been undertaken using a novel drop-test method for initial activity screening, as well as using conventional growth curve analysis methodology. This novel class of antimicrobial agent has shown bactericidal activity against Gram +ve (e.g. S. aureus, Bacillus megaterium) and bacteriostatic activity against Gram −ve isolates (e.g. E. coli).
(§2) The compounds were screened initially by drop testing methods and then by growth rate methods as it was identified that drop testing methods could give false negatives.

S. aureus [2] = experiment: drop test activity screening; also: key: Y = antibacterial activity; N = No antibacterial activity
Excerpt: as §1, §2

E. coli [3] = experiment: Calculated MIC50 and MIC100 values
Excerpt: (§3) The present inventors have determined MIC50 values, in the nM-μM range, for lead compounds, against clinical S. aureus isolates (e.g. MRSA) and E. coli in both log and stationary phases.

S. aureus [4] = experiment: Calculated MIC50 and MIC100 values; details: for MIC50 Staph Log / MIC100 Staph Log: log phase; for MIC50 Staph Stat / MIC100 Staph Stat: stationary phase
Excerpt: as §3

E. coli [5] = experiment: growth rate (growth curve) activity screening; details: first E. coli growth column, phase not given
Excerpt: as §1, §2

S. aureus [6] = experiment: growth rate (growth curve) activity screening; details: for Grow Rates activity S. aureus: phase not given; for Grow Rates activity S. aureus Log: log phase bacterial growth
Excerpt: as §1, §2

| Compound | drop test activity E. coli (E. coli [1]) | drop test activity S. aureus (S. aureus [2]) | Grow Rates activity S. aureus Log (S. aureus [6]) | other results |
| --- | --- | --- | --- | --- |
| O=C(NCS(=O)(=O)O)Nc1ccc(C(F)(F)F)cc1 [Compound 1] | N | Y | Y | MIC50 Coli Stat (E. coli [3]; stationary phase): 412.0789 µg/mL (≈ 1380 µM); MIC100 Coli Stat (E. coli [3]; stationary phase): 421.0559 µg/mL (≈ 1410 µM); MIC50 Staph Log (S. aureus [4]): 7.35 μg/mL; MIC100 Staph Log (S. aureus [4]): 29.41 μg/mL; MIC50 Staph Stat (S. aureus [4]): 209.132 µg/mL (≈ 701 µM); MIC100 Staph Stat (S. aureus [4]): 254.5639 µg/mL (≈ 854 µM); Grow Rates activity E. coli (E. coli [5]): Y; Grow Rates activity S. aureus (S. aureus [6]): Y |
| O=S(=O)(O)CNC(=S)Nc1ccc(C(F)(F)F)cc1 [Compound 2] | N | Y | Y | MIC50 Staph Log (S. aureus [4]): 54.13 μg/mL; MIC100 Staph Log (S. aureus [4]): 93.55 μg/mL; Grow Rates activity E. coli (E. coli [5]): Y |
| O=C(NCCS(=O)(=O)O)Nc1ccc(C(F)(F)F)cc1 [Compound 3] | N | N | – | – |
| O=S(=O)(O)CCNC(=S)Nc1ccc(C(F)(F)F)cc1 [Compound 4] | N | Y | – | – |
| O=C(NCCCS(=O)(=O)O)Nc1ccc(C(F)(F)F)cc1 [Compound 5] | N | N | – | – |
| O=S(=O)(O)CCCNC(=S)Nc1ccc(C(F)(F)F)cc1 [Compound 6] | N | Y | – | – |
| O=C(NCS(=O)(=O)O)Nc1ccc(C(F)(F)F)cc1 [Compound 31] | N | Y | Y | MIC50 Staph Log (S. aureus [4]): 21.6 μg/mL; MIC100 Staph Log (S. aureus [4]): 22.68 μg/mL; MIC50 Staph Stat (S. aureus [4]): 14.79 µg/mL (≈ 49.6 µM); MIC100 Staph Stat (S. aureus [4]): 14.84 µg/mL (≈ 49.8 µM) |
| O=C(NCS(=O)(=O)O)Nc1ccc(C(F)(F)F)cc1 [Compound 32] | N | Y | Y | MIC50 Staph Log (S. aureus [4]): 19.14 μg/mL; MIC100 Staph Log (S. aureus [4]): 20.08 μg/mL; MIC50 Staph Stat (S. aureus [4]): 39.4 µg/mL (≈ 132 µM); MIC100 Staph Stat (S. aureus [4]): 57 µg/mL (≈ 191 µM) |
| O=C(NCS(=O)(=O)O)Nc1ccc(C(F)(F)F)cc1 [Compound 33] | N | Y | Y | MIC50 Staph Log (S. aureus [4]): 0.45 μg/mL; MIC100 Staph Log (S. aureus [4]): 2.971 μg/mL; MIC50 Staph Stat (S. aureus [4]): 5.579 µg/mL (≈ 18.7 µM); MIC100 Staph Stat (S. aureus [4]): 7.304 µg/mL (≈ 24.5 µM) |
| O=C(NCS(=O)(=O)O)Nc1ccc(C(F)(F)F)cc1 [Compound 34] | N | Y | Y | MIC50 Staph Log (S. aureus [4]): 146.6192 μg/mL; Grow Rates activity E. coli (E. coli [5]): Y |
| O=C(NCS(=O)(=O)O)Nc1ccc(C(F)(F)F)cc1 [Compound 37] | N | Y | Y | MIC50 (E. coli [3]; Escherichia coli, stationary phase, read-out: MIC50 Coli Stat): 451 µg/mL (≈ 1510 µM); MIC (E. coli [3]; Escherichia coli, stationary phase, read-out: MIC100 Coli Stat): 480 µg/mL (≈ 1610 µM); MIC50 Coli Log (E. coli [3]; log phase): 236.9979 μg/mL; MIC100 Coli Log (E. coli [3]; log phase): 505.6726 μg/mL; MIC50 Staph Log (S. aureus [4]): 29.08 μg/mL; MIC100 Staph Log (S. aureus [4]): 30.35 μg/mL; MIC50 Staph Stat (S. aureus [4]): 464.1399 µg/mL (≈ 1560 µM); MIC100 Staph Stat (S. aureus [4]): 559.1301 µg/mL (≈ 1870 µM) |
| O=C(NCS(=O)(=O)O)Nc1ccc([N+](=O)[O-])cc1 [Compound 38] | N | Y | Y | Grow Rates activity E. coli (E. coli [5]): Y |
| COc1ccc(NC(=O)NCS(=O)(=O)O)cc1 [Compound 39] | N | N | – | – |
| O=C(NCS(=O)(=O)O)Nc1ccccc1 [Compound 40] | N | N | – | – |
| O=C(NCS(=O)(=O)[O-])Nc1ccc(C(F)(F)F)cc1.[Na+] [Compound 41] | N | Y | – | – |
| O=C(NCS(=O)(=O)[O-])Nc1ccc(C(F)(F)F)cc1.[K+] [Compound 42] | N | N | – | – |
| O=S(=O)(O)CNC(=S)Nc1cc(C(F)(F)F)cc(C(F)(F)F)c1 [Compound 43] | N | Y | Y | Grow Rates activity E. coli (E. coli [5]): Y |
| O=C(NCS(=O)(=O)O)Nc1cc(C(F)(F)F)cc(C(F)(F)F)c1 [Compound 44] | N | Y | – | – |

| Compound | drop test activity E. coli (E. coli [1]) | drop test activity S. aureus (S. aureus [2]) | Grow Rates activity S. aureus Log (S. aureus [6]) | other results |
| --- | --- | --- | --- | --- |
| O=C(NCS(=O)(=O)O)Nc1cccc2ccccc12 [Compound 45] | N | N | – | – |
| CCCCNC(=O)NCS(=O)(=O)O [Compound 46, reference compound] | N | N | – | – |
| CCCCNC(=S)NCS(=O)(=O)O [Compound 47, reference compound] | N | N | – | – |
| CCCCNC(=O)NCCS(=O)(=O)O [Compound 48, reference compound] | N | N | – | – |
| CCCCNC(=S)NCCS(=O)(=O)O [Compound 49, reference compound] | N | N | – | – |
| CCCCNC(=O)NCCCS(=O)(=O)O [Compound 50, reference compound] | N | N | – | – |
| CCCCNC(=S)NCCCS(=O)(=O)O [Compound 51, reference compound] | N | N | – | – |
| O=C(NCS(=O)(=O)O)Nc1ccc2cc3ccccc3cc2c1 [Compound 52] | N | N | Y | MIC50 Staph Log (S. aureus [4]): 330.0044 μg/mL; Grow Rates activity E. coli (E. coli [5]): Y |
| Cc1ccc2sc(-c3ccc(NC(=O)NCS(=O)(=O)O)cc3)nc2c1 [Compound 53] | N | Y | Y | MIC50 Staph Log (S. aureus [4]): 21.11 μg/mL; Grow Rates activity E. coli (E. coli [5]): Y |
| O=C(NCS(=O)(=O)O)Nc1ccccc1-c1nc2ccccc2s1 [Compound 54] | N | N | – | – |
| O=S(=O)(O)CNC(=S)Nc1ccc(C(F)(F)F)cc1 [Compound 61] | N | N | Y | – |
| O=S(=O)(O)CNC(=S)Nc1ccc(C(F)(F)F)cc1 [Compound 62] | N | N | Y | – |
| O=S(=O)(O)CNC(=S)Nc1ccc(C(F)(F)F)cc1 [Compound 63] | N | N | – | – |
| O=C(NCS(=O)(=O)O)Nc1c(F)c(F)c(F)c(F)c1F [Compound 65] | N | N | – | – |
| O=C(NCS(=O)(=O)O)Nc1ccc(Cc2ccc(NC(=O)NCS(=O)(=O)O)cc2)cc1 [Compound 68] | N | Y | Y | MIC50 Staph Log (S. aureus [4]): 370.0761 μg/mL |
| O=C(NCS(=O)(=O)O)Nc1nc2ccccc2s1 [Compound 71] | N | N | Y | Grow Rates activity S. aureus (S. aureus [6]): N |
| Cc1ccc2nc(NC(=O)NCS(=O)(=O)O)sc2c1 [Compound 72] | N | N | N | Grow Rates activity S. aureus (S. aureus [6]): Y |
| Nc1ccc(NC(=O)NCS(=O)(=O)O)cc1 [Compound 74] | N | N | Y | – |
